Measured values published in ChEMBL document CHEMBL1201862, “PubChem BioAssay data set” (2004).
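Each compound was tested at five concentrations against cells in 96-well plates for 48 hours. Abbreviation: GI50, concentration required for 50% inhibition of growth.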 Activity calls are given as the source filed them. Rule as the data show it: active = GI50 up to about 1.1 µM and inactive = higher.

How the values were obtained:
Assay in all cases: inhibition of tumour cell growth, NCI panel, 48 h
[1] = system: MCF7
[2] = system: RPMI-8226
[3] = system: TK-10
[4] = system: HOP-92
[5] = system: SK-MEL-5
[6] = system: KM12
[7] = system: NCI-H522
[8] = system: NCI/ADR-RES
[9] = system: SNB-19
[10] = system: SF-539
[11] = system: HOP-62
[12] = system: LXFL 529
[13] = system: ACHN
[14] = system: SNB-75
[15] = system: SNB-78
[16] = system: NCI-H226
[17] = system: HCT-116
[18] = system: DMS-114
[19] = system: LOX IMVI
[20] = system: DU-145

Measured: GI50

CC(=O)O[C@H]1CC[C@H]2[C@@H]3CCC(C(C)=O)[C@H](C(=O)O)[C@H]3CC[C@]12C (stereo partly specified)
inactive: [1] > 100 µM | [2] > 100 µM | [3] > 100 µM | [4] > 100 µM | [5] > 100 µM | [6] > 100 µM | [7] > 100 µM | [8] > 100 µM | [9] > 100 µM | [10] > 100 µM | [11] > 100 µM

CC1(C)OC[C@H](C(=N)OCc2ccccc2)O1
inactive: [12] > 100 µM | [2] > 100 µM | [3] > 100 µM | [4] > 100 µM | [5] > 100 µM | [13] > 100 µM | [14] > 100 µM | [6] > 100 µM | [7] > 100 µM | [15] > 100 µM | [9] > 100 µM | [16] 19.3 µM | [10] > 100 µM | [11] > 100 µM | [17] > 100 µM | [18] > 100 µM

CCCCC(CC)C(=O)Oc1ccc(C(=O)c2ccccc2)c(O)c1 (stereo unspecified)
inactive: [1] 60.4 µM | [2] 15.1 µM | [3] 58.7 µM | [4] 23.2 µM | [5] 39.6 µM | [13] 48.1 µM | [14] 23.3 µM | [6] 15.4 µM | [7] 31.7 µM | [19] 44.6 µM | [8] 35.9 µM | [9] 68.9 µM | [10] 5.46 µM | [11] 55 µM | [17] 43.3 µM | [20] 57 µM

O=C(NN1C(=O)CSC1c1ccc(C(F)(F)F)cc1)c1ccncc1 (stereo unspecified)
inactive: [1] > 100 µM | [2] > 65.6 µM | [4] > 100 µM | [5] > 100 µM | [14] > 100 µM | [6] > 100 µM | [7] > 100 µM | [19] > 100 µM | [8] > 100 µM | [15] > 31.6 µM | [9] > 100 µM | [16] > 100 µM | [10] > 100 µM | [11] > 100 µM | [17] > 100 µM | [18] > 100 µM

O=c1oc2ccccc2n1P(=O)(Oc1ccc(Cl)cc1)n1c(=O)oc2ccccc21
inactive: [3] > 100 µM | [4] > 100 µM | [5] > 100 µM | [13] > 100 µM | [14] > 100 µM | [6] 85.5 µM | [7] > 100 µM | [19] > 100 µM | [15] > 100 µM | [9] > 100 µM | [16] > 100 µM | [10] > 100 µM | [11] > 100 µM | [17] > 100 µM | [18] > 100 µM

CCCCCCCCCCCCCCCc1nnc(S)[nH]1
inactive: [12] 30.5 µM | [2] 79.3 µM | [3] > 100 µM | [13] > 100 µM | [14] > 100 µM | [6] > 100 µM | [7] 19.6 µM | [19] > 100 µM | [15] > 100 µM | [9] > 100 µM | [10] > 100 µM | [11] > 100 µM | [17] > 100 µM | [18] 60.4 µM

Nc1n[nH]c2c1Cc1c(n(Cc3ccc(Cl)cc3)c3ccccc13)C(=O)N2
inactive: [1] 10.3 µM | [3] 15 µM | [4] 12.9 µM | [5] 3.69 µM | [14] 16.2 µM | [19] 9.79 µM | [8] 19.9 µM | [16] 11.1 µM | [10] 15.4 µM | [11] 15 µM | [17] 8.15 µM | [20] 12 µM

C=C1CC[C@@H](Br)C(C)(C)[C@]12CCC(C)(O)C(Cl)C2 (stereo partly specified)
inactive: [2] 18.8 µM | [3] 29.2 µM | [4] 23 µM | [5] 20.9 µM | [13] 20.9 µM | [14] 31 µM | [6] 18.2 µM | [7] 16.6 µM | [19] 19.1 µM | [15] 52.5 µM | [9] 19.8 µM | [16] 16.7 µM | [11] 23.3 µM | [17] 18.1 µM | [18] 17.2 µM

CCOC(=O)CCc1c(C)c2c(O)cc(O)cc2oc1=O
inactive: [1] > 100 µM | [2] > 100 µM | [4] > 100 µM | [5] > 100 µM | [14] > 100 µM | [6] > 100 µM | [7] > 100 µM | [19] > 100 µM | [8] > 100 µM | [15] > 100 µM | [9] > 84.1 µM | [16] > 87.9 µM | [10] > 100 µM | [11] > 100 µM | [17] 15.8 µM

Nc1c(S(=O)(=O)O)cc(S(=O)(=O)O)c2ccc(/N=N/c3ccc(/C=C/c4ccc(/N=N/c5ccc6c(S(=O)(=O)O)cc(S(=O)(=O)O)c(N)c6c5O)cc4S(=O)(=O)O)c(S(=O)(=O)O)c3)c(O)c12
inactive: [1] > 100 µM | [2] > 100 µM | [4] 35.6 µM | [5] > 100 µM | [14] 56.9 µM | [6] > 100 µM | [7] 54.1 µM | [19] > 100 µM | [8] > 100 µM | [15] > 83.4 µM | [9] > 100 µM | [16] > 100 µM | [10] > 100 µM | [11] > 100 µM | [17] > 100 µM | [18] > 100 µM

CCOC(=O)/C=C1/C(CCCOCc2ccccc2)C2CCCC23CC2(CCN13)OCCO2 (stereo unspecified)
inactive: [12] 22.2 µM | [2] 6.24 µM | [3] 36.2 µM | [5] 15.7 µM | [13] 22.3 µM | [14] 2.99 µM | [6] 22.3 µM | [7] 6.82 µM | [19] 18.1 µM | [15] 25.9 µM | [9] 33.3 µM | [16] 22.6 µM | [18] 13.9 µM

CC1=C(SCCO)C(=O)c2ccccc2C1=O
inactive: [1] 3.02 µM | [2] 2.55 µM | [3] 16.8 µM | [4] 1.7 µM | [5] 13.3 µM | [13] 3.52 µM | [14] 16.5 µM | [6] 13.6 µM | [7] 3.72 µM | [19] 12.1 µM | [8] 14.3 µM | [9] 25.4 µM | [16] 14.7 µM | [10] 12.1 µM | [11] 15.9 µM | [17] 4.76 µM | [20] 16 µM
